Patent US20090240058A1, “Activator for Peroxisome Proliferator-Activating Receptor Delta” (priority 2005, published 2009)

Columns and labels:
hPPAR α (LBD) = biological target: T1, hPPAR α (LBD) (Homo sapiens, UniProt Q07869); experiment: GAL4-hPPAR α (LBD) luciferase reporter transactivation in CV-1 cells; format: cell-based; set-up: key: IA: inactive; conditions: relative to 100% of compound of Example 2 of Patent Publication 4 at 10^−6 M
T1 construct: A receptor expression plasmid (pSG5-GAL4-hPPAR α or γ or δ (LBD)); GAL4 (fusion partner); expressed in transfected cells; host or cells: CV-1 cells (ATCC)
T1 sequence (Q07869 239-466 limits assumed): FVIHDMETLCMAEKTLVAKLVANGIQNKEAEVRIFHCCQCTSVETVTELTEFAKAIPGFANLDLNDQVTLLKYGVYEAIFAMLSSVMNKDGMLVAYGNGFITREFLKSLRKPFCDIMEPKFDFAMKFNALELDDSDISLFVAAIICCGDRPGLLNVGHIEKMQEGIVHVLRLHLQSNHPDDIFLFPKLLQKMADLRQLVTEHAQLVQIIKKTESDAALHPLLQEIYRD
Method: (§1) A receptor expression plasmid (pSG5-GAL4-hPPAR α or γ or δ (LBD)), a luciferase expression plasmid (pUC8-MH100x4-TK-Luc) and β-galactosidase expression plasmid (pCMX-β-GAL) (Kliewer, S. A., et. al., (1992) Nature, 358:771-774) are transfected into CV-1 cells (ATCC). After gene transfer utilizing a lipofection reagent DMRIE-C or Lipofectamin 2000 (Invitrogen), it is incubated for 42 hours in the presence of the test compound. Then, the luciferase activity and β-GAL activity are measured on the soluble cells. The luciferase activity is calibrated by the β-GAL activity. A relative ligand activity is calculated for each of the PPARα, γ and δ under the following conditions: a relative activity of PPAR α is calculated in consideration of a luciferase activity (assigned to 100%) of cells treated with the compound described in Example 2 of the aforementioned Patent Publication 4 (PPARα-selective agonist); a relative activity of PPAR γ is calculated in consideration of a luciferase activity (assigned to 100%) cells treated with Rosiglitazone; and a relative activity of PPAR δ is calculated in consideration of a luciferase activity (assigned to 100%) of cells treated with GW-501516. See the below-described Examples 22 and 23.
(§2) The PPARδ activating effects of test compounds (compounds of Examples) were measured by the following method:
as §1, with “(pUC8-MH100x-4-TK-Luc)” for “(pUC8-MH100x4-TK-Luc)”, “approx. 40” for “42”, “PPAR α,” for “PPARα,”, “GW-501516.” for “GW-501516. See the below-described Examples 22 and 23.”
(§3) The experimental results Table 28 were obtained by procedures similar to the procedures for pharmacological experimental described in Example 22.

hPPAR γ (LBD) = biological target: T2, hPPAR γ (LBD) (Homo sapiens, UniProt P37231); experiment: GAL4-hPPAR γ (LBD) luciferase reporter transactivation in CV-1 cells; format: cell-based; set-up: key: IA: inactive; conditions: relative to 100% of Rosiglitazone at 10^−5 M
T2 construct: A receptor expression plasmid (pSG5-GAL4-hPPAR α or γ or δ (LBD)); GAL4 (fusion partner); expressed in transfected cells; host or cells: CV-1 cells (ATCC)
T2 sequence (P37231 238-503 limits assumed): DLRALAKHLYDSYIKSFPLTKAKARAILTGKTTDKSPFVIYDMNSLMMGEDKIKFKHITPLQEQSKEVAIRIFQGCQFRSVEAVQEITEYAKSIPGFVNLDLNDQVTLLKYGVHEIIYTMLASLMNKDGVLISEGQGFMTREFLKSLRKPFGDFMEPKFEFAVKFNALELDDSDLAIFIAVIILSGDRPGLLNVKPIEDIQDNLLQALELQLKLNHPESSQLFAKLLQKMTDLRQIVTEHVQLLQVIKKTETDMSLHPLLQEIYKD
Method: as §1, §2
as §1, with “(pUC8-MH100x-4-TK-Luc)” for “(pUC8-MH100x4-TK-Luc)”, “approx. 40” for “42”, “PPAR α,” for “PPARα,”, “GW-501516.” for “GW-501516. See the below-described Examples 22 and 23.”
as §3

hPPAR δ (LBD) = biological target: T3, hPPAR δ (LBD) (Homo sapiens, UniProt Q03181); experiment: GAL4-hPPAR δ (LBD) luciferase reporter transactivation in CV-1 cells; format: cell-based; conditions: relative to 100% of GW-501516 at 10^−7 M
T3 construct: A receptor expression plasmid (pSG5-GAL4-hPPAR α or γ or δ (LBD)); GAL4 (fusion partner); expressed in transfected cells; host or cells: CV-1 cells (ATCC)
T3 sequence (Q03181 211-439 limits assumed): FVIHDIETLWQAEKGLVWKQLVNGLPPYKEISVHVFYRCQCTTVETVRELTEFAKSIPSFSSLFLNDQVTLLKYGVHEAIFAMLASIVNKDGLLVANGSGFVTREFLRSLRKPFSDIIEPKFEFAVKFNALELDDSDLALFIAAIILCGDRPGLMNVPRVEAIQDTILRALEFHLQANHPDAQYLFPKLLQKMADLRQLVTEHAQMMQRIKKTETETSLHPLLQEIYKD
Method: For determining PPARδ activating effect of the compounds according to the invention, PPARδ activating effects of test compounds (compounds of Examples) were measured by the following method:
as §1, §2
as §1, with “(pUC8-MH100x-4-TK-Luc)” for “(pUC8-MH100x4-TK-Luc)”, “approx. 40” for “42”, “PPAR α,” for “PPARα,”, “GW-501516.” for “GW-501516. See the below-described Examples 22 and 23.”
as §3

[1] = test compound 10^−7 M (Examples 8 and 10)
[2] = test compound 10^−7 M (Examples 5, 8 and 10)
[3] = Table 28, test compound 10^−6 M

Compound	PPAR activity (%) γ (hPPAR γ (LBD); test compound 10^−6 M)	PPAR activity (%) α (hPPAR α (LBD); test compound 10^−6 M)	PPAR activity (%) δ (hPPAR δ (LBD); test compound 10^−6 M)	further results
Cc1cc(C(C)CCc2cc(-c3ccc(C(F)(F)F)cc3)nn2C(C)C)ccc1OC(C)(C)C(=O)O (stereo not shown) [Example 8, 2-[4-[3-[1-Isopropyl-3-(4-trifluoromethylphenyl)-1H-pyrazol-5-yl]-1-methylpropyl]-2-methylphenoxy]-2-methylpropionic acid]	61%	–	–	PPAR activity (%) α (hPPAR α (LBD); [1]): 89%; PPAR activity (%) δ (hPPAR δ (LBD); [2]): 45%
Cc1cc(C(=O)CCc2sc(-c3ccc(C(F)(F)F)cc3)cc2C(C)C)ccc1OC(C)(C)C(=O)O [Example 15, 2-[4-[3-[3-Isopropyl-5-(4-trifluoromethylphenyl)thiophen-2-yl]propionyl]-2-methylphenoxy]-2-methylpropionic acid]	–	–	–	PPAR activity (%) α (hPPAR α (LBD); [3]): 99%; PPAR activity (%) γ (hPPAR γ (LBD); [3]): 11%; PPAR activity (%) δ (hPPAR δ (LBD); [3]): 85%
CCCCCCn1nc(-c2ccc(C)cc2)cc1CCC(=O)c1ccc(OC(C)(C)C(=O)O)c(C)c1 [Example 14, 2-[4-[3-[1-Hexyl-3-(4-methylphenyl)-1H-pyrazol-5-yl]propionyl]-2-methylphenoxy]-2-methylpropionic acid]	–	–	–	PPAR activity (%) α (hPPAR α (LBD); [3]): 123%; PPAR activity (%) γ (hPPAR γ (LBD); [3]): 48%; PPAR activity (%) δ (hPPAR δ (LBD); [3]): 94%
Cc1cc(C(=O)CCc2cn(-c3ccc(C(F)(F)F)cc3)nc2C(C)C)ccc1OCC(=O)O [Example 2, 4-[3-[3-Isopropyl-1-(4-trifluoromethylphenyl)-1H-pyrazol-4-yl]propionyl]-2-methylphenoxyacetic acid]	IA	IA	76%	–
CCCCCCn1nc(-c2ccc(C(F)(F)F)cc2)cc1CCC(=O)c1ccc(OCC(=O)O)c(C)c1 [Example 11, [4-[3-[1-Hexyl-3-(4-trifluoromethylphenyl)-1H-pyrazol-5-yl]propionyl]-2-methylphenoxy]acetic acid]	IA	IA	81%	melting point: 118 to 123 °C
Cc1ccc(-n2cc(CCC(=O)c3ccc(OC(C)(C)C(=O)O)c(C)c3)c(C(C)C)n2)nc1 [Example 3, 2-[4-[3-[3-Isopropyl-1-(5-methylpyridin-2-yl)-1H-pyrazol-4-yl]propionyl]-2-methylphenoxy]-2-methylpropionic acid]	30%	131%	72%	–
Cc1cc(C(=O)CCc2sc(-c3ccc(C(F)(F)F)cc3)cc2C)ccc1OCC(=O)O [Example 13, [2-Methyl-4-[3-[3-methyl-5-(4-trifluoromethylphenyl)thiophen-2-yl]propionyl]phenoxy]acetic acid]	IA	IA	82%	–
Cc1cc(C(=O)CCc2cc(-c3ccc(C(F)(F)F)cc3)nn2C(C)C)ccc1OC(C)(C)C(=O)O [Example 5, 2-[4-[3-[1-Isopropyl-3-(4-trifluoromethylphenyl)-1H-pyrazol-5-yl]propionyl]-2-methylphenoxy]-2-methylpropionic acid]	15%	109%	–	PPAR activity (%) δ (hPPAR δ (LBD); [2]): 93%
CCCCCCn1nc(-c2ccc(C(F)(F)F)cc2)cc1CCC(=O)c1ccc(OC(C)(C)C(=O)O)c(C)c1 [Example 10, 2-[4-[3-[1-Hexyl-3-(4-trifluoromethylphenyl)-1H-pyrazol-5-yl]propionyl]-2-methylphenoxy]-2-methylpropionic acid]	54%	–	–	PPAR activity (%) α (hPPAR α (LBD); [1]): 77%; PPAR activity (%) δ (hPPAR δ (LBD); [2]): 53%
Cc1cc(C(=O)CCc2sc(-c3ccc(C(F)(F)F)cc3)cc2C)ccc1OC(C)(C)C(=O)O [Example 12, 2-Methyl-2-[2-methyl-4-[3-[3-methyl-5-(4-trifluoromethylphenyl)thiophen-2-yl]propionyl]phenoxy]-propionic acid]	29%	51%	94%	–
CCCCCCc1cc(-c2ccc(C)cc2)sc1CCC(=O)c1ccc(OC(C)(C)C(=O)O)c(C)c1 [Example 17, 2-[4-[3-[3-Hexyl-5-(4-methylphenyl)thiophen-2-yl]propionyl]-2-methylphenoxy]-2-methylpropionic acid]	–	–	–	PPAR activity (%) α (hPPAR α (LBD); [3]): 109%; PPAR activity (%) γ (hPPAR γ (LBD); [3]): 35%; PPAR activity (%) δ (hPPAR δ (LBD); [3]): 76%
Cc1cc(C(=O)CCc2cn(-c3ccc(C(F)(F)F)cc3)nc2C(C)C)ccc1OC(C)(C)C(=O)O [Example 1, 2-[4-[3-[3-Isopropyl-1-(4-trifluoromethylphenyl)-1H-pyrazol-4-yl]propionyl]-2-methylphenoxy]-2-methylpropionic acid]	7%	62%	87%	–
Cc1cc(C(=O)CCc2cc(-c3ccc(C(F)(F)F)cc3)nn2C(C)C)ccc1OC(C)C(=O)O (stereo not shown) [Example 9, 2-[4-[3-[1-Isopropyl-3-(4-trifluoromethylphenyl)-1H-pyrazol-5-yl]propionyl]-2-methylphenoxy]propionic acid]	29%	73%	59%	–
C=C(CCc1cc(-c2ccc(C(F)(F)F)cc2)nn1C(C)C)c1ccc(OC(C)(C)C(=O)O)c(C)c1 [Example 7, 2-[4-[1-[2-[1-Isopropyl-3-(4-trifluoromethylphenyl)-1H-pyrazol-5-yl]ethyl]vinyl]-2-methylphenoxy]-2-methylpropionic acid]	38%	84%	72%	–
